According to patent US9302999B2, “Substituted triazoles as herbicides” (E. I. DU PONT DE NEMOURS AND COMPANY, priority 2012, dated 2016):
Where two headings read alike, the source gives them in different places.

Assays:
Format in all cases: in vivo
[1] = tested on: large crabgrass (Digitaria sanguinalis); test: Test C pre-/postemergence: large crabgrass
Procedure, shortened: (§1)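 Preemergence on seeds in loam/sand, postemergence on 2–18 cm (1–4-leaf) plants in peat-based medium; compounds in non-phytotoxic solvent with surfactant. After 13–15 days in greenhouse, visual rating versus controls, 0 (no effect) to 100 (complete control).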

[2] = tested on: sedge, umbrella (small-flower umbrella sedge Cyperus difformis); test: Test B flooded paddy: sedge, umbrella; settings: Flood; 250 g ai/ha; applied to paddy water at 2-leaf stage; visually evaluated after 13 to 15 days
Procedure, shortened: (§2)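 Flooded-pot test: compound dosed into 3 cm of standing water above soil when plants had two leaves. Visual control ratings (0–100) versus untreated plants after 13–15 d.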

[3] = tested on: winter wheat (Triticum aestivum); test: Test C pre-/postemergence: winter wheat
Procedure, shortened: as §1

[4] = tested on: barnyardgrass (Echinochloa crus-galli); test: Test B flooded paddy: barnyardgrass; settings: Flood; 250 g ai/ha; applied to paddy water at 2-leaf stage; visually evaluated after 13 to 15 days
Procedure, shortened: as §2

[5] = tested on: chickweed (common chickweed, Stellaria media); test: Test C postemergence: chickweed
Procedure, shortened: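 Crop and weed plants were grown in peat-vermiculite medium and treated postemergence at the 1- to 4-leaf stage (2-18 cm tall). After 13-15 days in a greenhouse, each species was rated visually against untreated controls on a 0-100 scale (0 no effect, 100 complete control).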

[6] = tested on: morningglory (Ipomoea coccinea); test: Test C pre-/postemergence: morningglory
Procedure, shortened: as §1

[7] = tested on: ducksalad (Heteranthera limosa); test: Test B flooded paddy: ducksalad; settings: Flood; 250 g ai/ha; applied to paddy water at 2-leaf stage; visually evaluated after 13 to 15 days
Procedure, shortened: as §2

[8] = tested on: ryegrass, Italian (Italian ryegrass, Lolium multiflorum); test: Test C pre-/postemergence: ryegrass, Italian
Procedure, shortened: as §1

[9] = tested on: blackgrass (Alopecurus myosuroides); test: Test C pre-/postemergence: blackgrass
Procedure, shortened: as §1

[10] = tested on: velvetleaf (Abutilon theophrasti); test: Test A pre-/postemergence: velvetleaf; settings: Abutilon theophrasti, 240 h; for pest or weed control at 125 g/ha: 125 g ai/ha; for pest or weed control at 500 g/ha: 500 g ai/ha
Procedure, shortened: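 Whole-plant greenhouse assay in loam/sand. Preemergence directed soil spray plus simultaneous postemergence spray (one- to two-leaf stage, 2–10 cm). Rated visually ~10 days later, 0 = no effect, 100 = complete control.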

corn (Zea mays) = test: Test C pre-/postemergence: corn
Procedure, shortened: as §1

[11] = Postemergence, 31 g ai/ha, scale 0 to 100 (0 no effect, 100 complete control)
[12] = Postemergence, 62 g ai/ha, scale 0 to 100 (0 no effect, 100 complete control)
[13] = Postemergence, 125 g ai/ha, scale 0 to 100, 0 no effect, 100 complete control
[14] = Postemergence, 250 g ai/ha, scale 0 to 100
[15] = Preemergence, 31 g ai/ha, scale 0 (no effect) to 100 (complete control)
[16] = Preemergence, 62 g ai/ha, scale 0 to 100, 0 no effect, 100 complete control
[17] = Preemergence, 125 g ai/ha, scale 0 to 100, 0 no effect, 100 complete control
[18] = Preemergence, 250 g ai/ha, scale 0 to 100, 0 no effect, 100 complete control
[19] = Postemergence, 250 g ai/ha, scale 0 to 100 (0 no effect, 100 complete control)

## CCOc1nn(-c2ccc(F)cc2)nc1Cc1ccnc(C(F)(F)F)c1 [Compound 196, 4-[[5-ethoxy-2-(4-fluorophenyl)-2H-1,2,3-triazol-4-yl]methyl]-2-(trifluoromethyl)pyridine]
[1]; [11]
  Plant response rating, Crabgrass, Large: 80
[1]; [12]
  Plant response rating, Crabgrass, Large: 85
[1]; [13]
  Plant response rating, Crabgrass, Large: 85
[1]; [14]
  Plant response rating, Crabgrass, Large: 95
[1]; [15]
  Plant response rating, Crabgrass, Large: 100
[1]; [16]
  Plant response rating, Crabgrass, Large: 100
[1]; [17]
  Plant response rating, Crabgrass, Large: 100
[1]; [18]
  Plant response rating, Crabgrass, Large: 100
[2]
  Plant response rating, Sedge, Umbrella (0 to 100 scale, 0 is no effect, 100 is complete control): 100
[3]; [11]
  Plant response rating, Wheat: 15
[3]; [12]
  Plant response rating, Wheat: 35
[3]; [13]
  Plant response rating, Wheat: 45
[3]; [19]
  Plant response rating, Wheat: 45
[3]; [15]
  Plant response rating, Wheat: 0
[3]; [16]
  Plant response rating, Wheat: 15
[3]; [17]
  Plant response rating, Wheat: 40
[3]; [18]
  Plant response rating, Wheat: 50
[4]
  Plant response rating, Barnyardgrass (0 to 100 scale, 0 is no effect, 100 is complete control): 85
[5]; 31 g ai/ha, scale 0 to 100 (0 no effect, 100 complete control)
  Plant response rating, Chickweed: 98
[5]; 62 g ai/ha, scale 0 to 100 (0 no effect, 100 complete control)
  Plant response rating, Chickweed: 98
[5]; 125 g ai/ha, scale 0 to 100, 0 no effect, 100 complete control
  Plant response rating, Chickweed: 100
[5]; 250 g ai/ha, scale 0 to 100
  Plant response rating, Chickweed: 100
[6]; [11]
  Plant response rating, Morningglory: 75
[6]; [12]
  Plant response rating, Morningglory: 75
[6]; [13]
  Plant response rating, Morningglory: 75
[6]; [19]
  Plant response rating, Morningglory: 75
[6]; [15]
  Plant response rating, Morningglory: 40
[6]; [16]
  Plant response rating, Morningglory: 85
[6]; [17]
  Plant response rating, Morningglory: 100
[6]; [18]
  Plant response rating, Morningglory: 100
[7]
  Plant response rating, Ducksalad (0 to 100 scale, 0 is no effect, 100 is complete control): 100
[8]; [11]
  Plant response rating, Ryegrass, Italian: 35
[8]; [12]
  Plant response rating, Ryegrass, Italian: 60
[8]; [13]
  Plant response rating, Ryegrass, Italian: 85
[8]; [19]
  Plant response rating, Ryegrass, Italian: 85
[8]; [15]
  Plant response rating, Ryegrass, Italian: 80
[8]; [16]
  Plant response rating, Ryegrass, Italian: 90
[8]; [17]
  Plant response rating, Ryegrass, Italian: 90
[8]; [18]
  Plant response rating, Ryegrass, Italian: 90
[9]; [11]
  Plant response rating, Blackgrass: 70
[9]; [12]
  Plant response rating, Blackgrass: 80
[9]; [13]
  Plant response rating, Blackgrass: 80
[9]; [14]
  Plant response rating, Blackgrass: 80
[9]; [15]
  Plant response rating, Blackgrass: 90
[9]; [16]
  Plant response rating, Blackgrass: 90
[9]; [17]
  Plant response rating, Blackgrass: 90
[9]; [18]
  Plant response rating, Blackgrass: 90
[10]; post-emergence, Postemergence, 0 to 100 scale, 0 is no effect, 100 is complete control, read-out: Plant response rating, Velvetleaf
  pest or weed control at 125 g/ha: 100%
[10]; post-emergence, Postemergence, 0 to 100 scale, 0 is no effect, 100 is complete control, read-out: Velvetleaf plant response rating
  pest or weed control at 500 g/ha: 100%
[10]; pre-emergence, Preemergence, 0 to 100 scale where 0 is no effect and 100 is complete control, read-out: Plant response rating, Velvetleaf
  pest or weed control at 125 g/ha: 80%
[10]; pre-emergence, Preemergence, 0 to 100 scale (0 no effect, 100 complete control), read-out: Plant response rating, Velvetleaf
  pest or weed control at 500 g/ha: 100%
Corn (Zea mays); [11]
  Plant response rating, Corn: 60
Corn (Zea mays); [12]
  Plant response rating, Corn: 60
Corn (Zea mays); [13]
  Plant response rating, Corn: 65
Corn (Zea mays); [14]
  Plant response rating, Corn: 65
Corn (Zea mays); [15]
  Plant response rating, Corn: 25
Corn (Zea mays); [16]
  Plant response rating, Corn: 35
Corn (Zea mays); [17]
  Plant response rating, Corn: 45
Corn (Zea mays); [18]
  Plant response rating, Corn: 50
